In PubChem BioAssay AID248 (DTP/NCI, 2004):
Several values for one entry are separate records, joined by “and”; a condition that tells them apart may be missing. Equal entries are not always repeated. Toxic doses and inconclusive results are not listed. No stated cut-off is given here; in the data, active means T/C of 150% or more; inactive means T/C below 125%.

Test system: L1210 leukemia ip in BDF1 mice, survival T/C
Assay: NCI In Vivo Anticancer Drug Screen. Data for tumor model L1210 Leukemia (intraperitoneal) in B6D2F1 (BDF1) mice
Details: endpoint: mean survival time, higher = longer survival
Method in brief: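 Ratio derived from survival: compound-dosed mice over vehicle-dosed mice, all bearing a transplantable tumor.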

[1] = dose: 100.0 mg/kg/injection, schedule: Q01DX009 (ip), vehicle: saline with Tween-80
[2] = dose: 100.0 mg/kg/injection, schedule: Q04DX002 (ip), vehicle: Klucel (hydroxypropylcellulose) (HPC)
[3] = dose: 200.0 mg/kg/injection, schedule: Q04DX002 (ip), vehicle: Klucel (hydroxypropylcellulose) (HPC)
[4] = dose: 100.0 mg/kg/injection, schedule: Q01DX009 (ip), vehicle: saline
[5] = dose: 100.0 mg/kg/injection, schedule: Q04DX003 (ip), vehicle: saline with Tween-80
[6] = dose: 200.0 mg/kg/injection, schedule: Q01DX009 (ip), vehicle: saline
[7] = dose: 200.0 mg/kg/injection, schedule: Q04DX003 (ip), vehicle: saline with Tween-80
[8] = dose: 100.0 mg/kg/injection, schedule: Q04DX003 (ip), vehicle: Klucel (hydroxypropylcellulose) (HPC)
[9] = dose: 100.0 mg/kg/injection, schedule: Q01DX009 (ip), vehicle: Klucel (hydroxypropylcellulose) (HPC)
[10] = dose: 200.0 mg/kg/injection, schedule: Q01DX009 (ip), vehicle: Klucel (hydroxypropylcellulose) (HPC)
[11] = dose: 25.0 mg/kg/injection, schedule: Q01DX009 (ip), vehicle: saline with Tween-80
[12] = dose: 50.0 mg/kg/injection, schedule: Q01DX009 (ip), vehicle: saline with Tween-80
[13] = dose: 50.0 mg/kg/injection, schedule: Q04DX003 (ip), vehicle: saline with Tween-80

Measured: T/C

CCN(CC)CC(=O)NCC(CCN(C)C)(CCN(C)C)c1cccc2ccccc12
inactive: dose: 25.0 mg/kg/injection, schedule: Q04DX002 (ip), vehicle: saline with Tween-80 115 % of control | dose: 50.0 mg/kg/injection, schedule: Q04DX002 (ip), vehicle: saline with Tween-80 96 % of control | [1] 93 % of control | dose: 100.0 mg/kg/injection, schedule: Q04DX002 (ip), vehicle: saline with Tween-80 107 % of control

Cc1nc2cc(N=Cc3ccc(N(CCCl)CCCl)cc3Cl)ccc2n1C
inactive: [2] 104 % of control | [3] 104 % of control | dose: 400.0 mg/kg/injection, schedule: Q04DX002 (ip), vehicle: Klucel (hydroxypropylcellulose) (HPC) 104 % of control

O=C(O)C1OC1c1ccccc1 (stereo not drawn)
inactive: [4] 107 % of control | [5] 98 % of control | [6] 109 % of control | [7] 98 % of control | dose: 400.0 mg/kg/injection, schedule: Q01DX009 (ip), vehicle: saline 104 % of control | dose: 400.0 mg/kg/injection, schedule: Q04DX003 (ip), vehicle: saline with Tween-80 100 % of control

CC(C)(C)OC(=O)c1c2ccccc2cc2ccccc12
inactive: dose: 100.0 mg/kg/injection, schedule: Q04DX002 (ip), vehicle: gum acacia 99 % of control | dose: 200.0 mg/kg/injection, schedule: Q04DX002 (ip), vehicle: gum acacia 101 % of control | dose: 400.0 mg/kg/injection, schedule: Q04DX002 (ip), vehicle: gum acacia 105 % of control

CCCCNC(=O)c1cc(NC(=O)c2ccc(C(=O)Nc3cc(C(=O)NCCCC)cc(C4N=CCN4)c3)cc2)cc(C2=NCCN2)c1 (stereo not drawn)
inactive: dose: 5.0 mg/kg/injection, schedule: Q01DX015 (ip), vehicle: methylcellulose (MC) 86 % of control | dose: 20.0 mg/kg/injection, schedule: Q01DX015 (ip), vehicle: methylcellulose (MC) 86 % of control | dose: 40.0 mg/kg/injection, schedule: Q01DX015 (ip), vehicle: methylcellulose (MC) 91 % of control | dose: 62.0 mg/kg/injection, schedule: Q01DX015 (ip), vehicle: methylcellulose (MC) 100 % of control

CC(=O)Nc1ccc2c(c1)Cc1cc(N=Cc3ccccn3)ccc1-2
inactive: dose: 50.0 mg/kg/injection, schedule: Q04DX003 (ip), vehicle: Klucel (hydroxypropylcellulose) (HPC) 87 % of control | [8] 90 % of control

CCCCNC(=O)Nc1ccc(C)cc1
inactive: dose: 100.0 mg/kg/injection, schedule: Q01DX001 (ip), vehicle: carboxymethylcellulose (CMC) 100 % of control | dose: 200.0 mg/kg/injection, schedule: Q01DX001 (ip), vehicle: carboxymethylcellulose (CMC) 103 % of control | dose: 400.0 mg/kg/injection, schedule: Q01DX001 (ip), vehicle: carboxymethylcellulose (CMC) 97 % of control

O=C(Nc1cccc(Cl)c1)c1ccccc1
inactive: [9] 94 % of control | [8] 92 % of control | [10] 94 % of control | dose: 200.0 mg/kg/injection, schedule: Q04DX003 (ip), vehicle: Klucel (hydroxypropylcellulose) (HPC) 90 % of control | dose: 400.0 mg/kg/injection, schedule: Q01DX009 (ip), vehicle: Klucel (hydroxypropylcellulose) (HPC) 97 % of control | dose: 400.0 mg/kg/injection, schedule: Q04DX003 (ip), vehicle: Klucel (hydroxypropylcellulose) (HPC) 101 % of control

NC(N)=N/N=C(/c1cccs1)C1CC1
inactive: dose: 15.0 mg/kg/injection, schedule: Q01DX Z (ip), vehicle: methylcellulose (MC) 101 % of control | dose: 15.0 mg/kg/injection, schedule: Q01DX Z (oral), vehicle: methylcellulose (MC) 92 % of control | dose: 30.0 mg/kg/injection, schedule: Q01DX Z (ip), vehicle: methylcellulose (MC) 96 % of control | dose: 30.0 mg/kg/injection, schedule: Q01DX Z (oral), vehicle: methylcellulose (MC) 97 % of control | dose: 60.0 mg/kg/injection, schedule: Q01DX Z (ip), vehicle: methylcellulose (MC) 110 % of control | dose: 120.0 mg/kg/injection, schedule: Q01DX Z (ip), vehicle: methylcellulose (MC) 97 % of control

COC(=O)c1cccc2c1ccc1ccccc12
inactive: dose: 37.5 mg/kg/injection, schedule: Q04DX003 (ip), vehicle: saline 92 % of control | dose: 50.0 mg/kg/injection, schedule: Q01DX009 (ip), vehicle: Klucel (hydroxypropylcellulose) (HPC) 111 % of control | dose: 75.0 mg/kg/injection, schedule: Q04DX003 (ip), vehicle: saline 94 % of control | [9] 105 % of control | dose: 150.0 mg/kg/injection, schedule: Q04DX003 (ip), vehicle: saline 89 % of control | [10] 96 % of control

Cc1cc(Cl)c(OC(=O)Nc2ccccc2F)cc1C
inactive: [11] 106 % of control | [12] 114 % of control | [1] 103 % of control and 105 % of control

O=C1CSC(=S)N1c1ccc(Cl)c(Cl)c1
inactive: [13] 96 % of control | [5] 101 % of control | [7] 104 % of control

CC1(C)N=C(N)N=C(N)N1c1cccc(OCCCc2ccccc2)c1
inactive: dose: 25.0 mg/kg/injection, schedule: Q01DX001 (ip), vehicle: Klucel (hydroxypropylcellulose) (HPC) 86 % of control | dose: 50.0 mg/kg/injection, schedule: Q01DX001 (ip), vehicle: Klucel (hydroxypropylcellulose) (HPC) 86 % of control | dose: 100.0 mg/kg/injection, schedule: Q01DX001 (ip), vehicle: Klucel (hydroxypropylcellulose) (HPC) 91 % of control

NC(N)=N/N=C/N1CCCCC1
inactive: dose: 60.0 mg/kg/injection, schedule: Q01DX Z (oral), vehicle: methylcellulose (MC) 90 % of control | dose: 120.0 mg/kg/injection, schedule: Q01DX Z (oral), vehicle: methylcellulose (MC) 100 % of control | dose: 240.0 mg/kg/injection, schedule: Q01DX Z (ip), vehicle: methylcellulose (MC) 110 % of control | dose: 240.0 mg/kg/injection, schedule: Q01DX Z (oral), vehicle: methylcellulose (MC) 89 % of control | dose: 300.0 mg/kg/injection, schedule: Q01DX Z (oral), vehicle: methylcellulose (MC) 100 % of control | dose: 360.0 mg/kg/injection, schedule: Q01DX Z (ip), vehicle: methylcellulose (MC) 103 % of control | dose: 400.0 mg/kg/injection, schedule: Q01DX Z (oral), vehicle: methylcellulose (MC) 105 % of control | dose: 480.0 mg/kg/injection, schedule: Q01DX Z (ip), vehicle: methylcellulose (MC) 107 % of control | dose: 480.0 mg/kg/injection, schedule: Q01DX Z (oral), vehicle: methylcellulose (MC) 101 % of control | dose: 720.0 mg/kg/injection, schedule: Q01DX Z (ip), vehicle: methylcellulose (MC) 95 % of control

CC[As](=O)(O)CC
inactive: dose: 50.0 mg/kg/injection, schedule: Q01DX009 (ip), vehicle: saline 97 % of control | [4] 120 % of control | dose: 100.0 mg/kg/injection, schedule: Q04DX003 (ip), vehicle: saline 101 % of control | [6] 105 % of control | dose: 200.0 mg/kg/injection, schedule: Q04DX003 (ip), vehicle: saline 107 % of control

Cc1c([N+](=O)[O-])cc(C(C)(C)C)c(OC(=O)C(Cl)(Cl)Cl)c1[N+](=O)[O-]
inactive: [2] 95 % of control | [3] 91 % of control

CCNC(C)CC(C)C (stereo not drawn)
inactive: [11] 101 % of control | dose: 25.0 mg/kg/injection, schedule: Q04DX003 (ip), vehicle: saline with Tween-80 95 % of control | [12] 92 % of control | [13] 92 % of control | [1] 98 % of control | [5] 93 % of control and 96 % of control

COC(CNCCO)c1ccccc1 (stereo not drawn)
inactive: [11] 104 % of control | [12] 98 % of control | [1] 106 % of control
